According to PubChem BioAssay (NCI):
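In this assay, cells in 96-well plates receive the compound at five concentrations for 48 hours. Endpoints are linearly interpolated between the surrounding concentrations. At the GI50, growth is halved. TGI is the concentration that stops growth completely.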

How the values were obtained:
Assay in all cases: DTP human tumour cell line panel, 48 h
IGROV1 ovarian = tested on: IGROV1 ovarian
UACC-62 melanoma = tested on: UACC-62 melanoma
M14 melanoma = tested on: M14 melanoma
UACC-257 melanoma = tested on: UACC-257 melanoma
NCI/ADR-RES ovarian = tested on: NCI/ADR-RES ovarian
SK-MEL-28 melanoma = tested on: SK-MEL-28 melanoma
SN12C renal = tested on: SN12C renal
LOX IMVI melanoma = tested on: LOX IMVI melanoma
HCT-116 colon = tested on: HCT-116 colon
UO-31 renal = tested on: UO-31 renal
786-0 renal = tested on: 786-0 renal
HCT-15 colon = tested on: HCT-15 colon
COLO 205 colon = tested on: COLO 205 colon
T-47D breast = tested on: T-47D breast
MCF7 breast = tested on: MCF7 breast
BT-549 breast = tested on: BT-549 breast
RPMI-8226 leukemia = tested on: RPMI-8226 leukemia
SF-268 CNS = tested on: SF-268 CNS
TK-10 renal = tested on: TK-10 renal
MOLT-4 leukemia = tested on: MOLT-4 leukemia
HOP-62 NSCLC = tested on: HOP-62 NSCLC
NCI-H23 lung = tested on: NCI-H23 lung
NCI-H522 lung = tested on: NCI-H522 lung
NCI-H226 lung = tested on: NCI-H226 lung
ACHN renal = tested on: ACHN renal
A549 NSCLC = tested on: A549 NSCLC
NCI-H460 lung = tested on: NCI-H460 lung
HOP-92 NSCLC = tested on: HOP-92 NSCLC
EKVX NSCLC = tested on: EKVX NSCLC
CCRF-CEM leukemia = tested on: CCRF-CEM leukemia
RXF 393 renal = tested on: RXF 393 renal
U251 CNS = tested on: U251 CNS
A498 renal = tested on: A498 renal
OVCAR-8 ovarian = tested on: OVCAR-8 ovarian
OVCAR-3 ovarian = tested on: OVCAR-3 ovarian
DU-145 prostate = tested on: DU-145 prostate
SNB-19 CNS = tested on: SNB-19 CNS
OVCAR-5 ovarian = tested on: OVCAR-5 ovarian
SNB-75 CNS = tested on: SNB-75 CNS
MDA-MB-231 breast = tested on: MDA-MB-231 breast
HCC-2998 colon = tested on: HCC-2998 colon
MALME-3M melanoma = tested on: MALME-3M melanoma
SF-295 CNS = tested on: SF-295 CNS
MDA-MB-435 = tested on: MDA-MB-435
CAKI-1 renal = tested on: CAKI-1 renal
SK-OV-3 ovarian = tested on: SK-OV-3 ovarian
HL-60(TB) leukemia = tested on: HL-60(TB) leukemia
PC-3 prostate = tested on: PC-3 prostate
SW-620 colon = tested on: SW-620 colon
SF-539 CNS = tested on: SF-539 CNS
KM12 colon = tested on: KM12 colon
SR leukemia = tested on: SR leukemia
HT29 colon = tested on: HT29 colon
SK-MEL-2 melanoma = tested on: SK-MEL-2 melanoma
SK-MEL-5 melanoma = tested on: SK-MEL-5 melanoma
K-562 leukemia = tested on: K-562 leukemia
HS 578T breast = tested on: HS 578T breast

O=C1c2cccc(Oc3ccccc3)c2C(=O)c2cccc(Oc3ccccc3)c21
GI50 (IGROV1 ovarian): > 100 µM
TGI (IGROV1 ovarian): > 100 µM
GI50 (UACC-62 melanoma): > 100 µM
TGI (UACC-62 melanoma): > 100 µM
GI50 (M14 melanoma): > 100 µM
TGI (M14 melanoma): > 100 µM
GI50 (UACC-257 melanoma): > 100 µM
TGI (UACC-257 melanoma): > 100 µM
GI50 (NCI/ADR-RES ovarian): > 100 µM
TGI (NCI/ADR-RES ovarian): > 100 µM
GI50 (SK-MEL-28 melanoma): > 100 µM
TGI (SK-MEL-28 melanoma): > 100 µM
GI50 (SN12C renal): > 100 µM
TGI (SN12C renal): > 100 µM
GI50 (LOX IMVI melanoma): > 100 µM
TGI (LOX IMVI melanoma): > 100 µM
GI50 (HCT-116 colon): > 100 µM
TGI (HCT-116 colon): > 100 µM
GI50 (UO-31 renal): > 100 µM
TGI (UO-31 renal): > 100 µM
GI50 (786-0 renal): 27.5 µM
TGI (786-0 renal): > 100 µM
GI50 (HCT-15 colon): > 100 µM
TGI (HCT-15 colon): > 100 µM
GI50 (COLO 205 colon): > 100 µM
TGI (COLO 205 colon): > 100 µM
GI50 (T-47D breast): > 100 µM
TGI (T-47D breast): > 100 µM
GI50 (MCF7 breast): > 100 µM
TGI (MCF7 breast): > 100 µM
GI50 (BT-549 breast): 22.9 µM
TGI (BT-549 breast): > 100 µM
GI50 (RPMI-8226 leukemia): > 100 µM
TGI (RPMI-8226 leukemia): > 100 µM
GI50 (SF-268 CNS): 39.8 µM
TGI (SF-268 CNS): > 100 µM
GI50 (TK-10 renal): > 100 µM
TGI (TK-10 renal): > 100 µM
GI50 (MOLT-4 leukemia): > 100 µM
TGI (MOLT-4 leukemia): > 100 µM
GI50 (HOP-62 NSCLC): 5.05 µM
TGI (HOP-62 NSCLC): > 100 µM
GI50 (NCI-H23 lung): > 100 µM
TGI (NCI-H23 lung): > 100 µM
GI50 (NCI-H522 lung): > 100 µM
TGI (NCI-H522 lung): > 100 µM
GI50 (NCI-H226 lung): > 100 µM
TGI (NCI-H226 lung): > 100 µM
GI50 (ACHN renal): > 100 µM
TGI (ACHN renal): > 100 µM
GI50 (A549 NSCLC): > 100 µM
TGI (A549 NSCLC): > 100 µM
GI50 (NCI-H460 lung): > 100 µM
TGI (NCI-H460 lung): > 100 µM
GI50 (HOP-92 NSCLC): 8.98 µM
TGI (HOP-92 NSCLC): 51.2 µM
GI50 (EKVX NSCLC): > 100 µM
TGI (EKVX NSCLC): > 100 µM
GI50 (CCRF-CEM leukemia): 7.14 µM
TGI (CCRF-CEM leukemia): 30.3 µM
GI50 (RXF 393 renal): 4.7 µM
TGI (RXF 393 renal): 36.4 µM
GI50 (U251 CNS): 33.3 µM
TGI (U251 CNS): > 100 µM
GI50 (A498 renal): > 100 µM
TGI (A498 renal): > 100 µM
GI50 (OVCAR-8 ovarian): > 100 µM
TGI (OVCAR-8 ovarian): > 100 µM
GI50 (OVCAR-3 ovarian): > 100 µM
TGI (OVCAR-3 ovarian): > 100 µM
GI50 (DU-145 prostate): > 100 µM
TGI (DU-145 prostate): > 100 µM
GI50 (SNB-19 CNS): 9.56 µM
TGI (SNB-19 CNS): 72.1 µM
GI50 (OVCAR-5 ovarian): > 100 µM
TGI (OVCAR-5 ovarian): > 100 µM
GI50 (SNB-75 CNS): 9.13 µM
TGI (SNB-75 CNS): 42.7 µM
GI50 (MDA-MB-231 breast): 44.8 µM
TGI (MDA-MB-231 breast): > 100 µM
GI50 (HCC-2998 colon): > 100 µM
TGI (HCC-2998 colon): > 100 µM
GI50 (MALME-3M melanoma): > 100 µM
TGI (MALME-3M melanoma): > 100 µM
GI50 (SF-295 CNS): 22.2 µM
TGI (SF-295 CNS): > 100 µM
GI50 (MDA-MB-435): > 100 µM
TGI (MDA-MB-435): > 100 µM
GI50 (CAKI-1 renal): > 100 µM
TGI (CAKI-1 renal): > 100 µM
GI50 (SK-OV-3 ovarian): 9.39 µM
TGI (SK-OV-3 ovarian): > 100 µM
GI50 (HL-60(TB) leukemia): > 100 µM
TGI (HL-60(TB) leukemia): > 100 µM
GI50 (PC-3 prostate): > 100 µM
TGI (PC-3 prostate): > 100 µM
GI50 (SW-620 colon): > 100 µM
TGI (SW-620 colon): > 100 µM
GI50 (SF-539 CNS): 41.5 µM
TGI (SF-539 CNS): > 100 µM
GI50 (KM12 colon): > 100 µM
TGI (KM12 colon): > 100 µM
GI50 (SR leukemia): 77.5 µM
TGI (SR leukemia): > 100 µM
GI50 (HT29 colon): > 100 µM
TGI (HT29 colon): > 100 µM
GI50 (SK-MEL-2 melanoma): 96.7 µM
TGI (SK-MEL-2 melanoma): > 100 µM
GI50 (SK-MEL-5 melanoma): > 100 µM
TGI (SK-MEL-5 melanoma): > 100 µM
GI50 (K-562 leukemia): > 100 µM
TGI (K-562 leukemia): > 100 µM
GI50 (HS 578T breast): 7.68 µM
TGI (HS 578T breast): > 100 µM
